# Assay results published in patent publication US20220257581A1, “Treatment of Cancer” (Sumitomo Dainippon Pharma Oncology, Inc., priority 2019, published 2022).
# Assays:
# [1] = tested on: patients with newly diagnosed, previously untreated AML; assay: Phase 1 dose-escalation study of alvocidib followed by 7+3: response assessments (ELN Guidelines); assay type: in vivo, human; conditions: for Overall CR, n (%): Response Evaluable Population
# Procedure: Methods: Study Population. This was a Phase 1, open-label, multicenter, dose-escalation study of alvocidib followed by cytarabine/daunorubicin (7+3) in patients with AML (NCT03298984). Patients aged 18-65 years with newly diagnosed, previously untreated AML and pathological confirmation of bone marrow (BM) blasts 20% were eligible. Key inclusion criteria included: Eastern Cooperative Oncology Group (ECOG) performance status (PS)≤2, serum creatinine level <1.8 mg/dL, alanine aminotransferase (ALT) and aspartate aminotransferase (AST)<5 times upper limit of normal (ULN), total bilirubin <2.0 mg/dL, and left ventricular ejection fraction (EF) >45%. Patients were excluded if they had previous treatment for AML (with the exception of hydroxyurea), and were diagnosed with acute promyelocytic leukemia (APL-M3) or core-binding factor AML ((CBF-AML: t(8;21); inv(16); t(16;16)). All patients provided written informed consent. This study was conducted as per the Declaration of Helsinki after approval by ethics committee of each participating center.
# Treatment Plan: Induction.
# Consolidation. Patients who achieved a complete remission (CR) received 2 to 4 cycles of consolidation therapy with high dose cytarabine (HiDAC) 3 gm/m^2 IV every 12 hours on days 1, 3 and 5 upon full hematological recovery (absolute neutrophil count ≥[…] and platelets >[…]). HiDAC was permitted to be dose reduced to 1.5 gm/m^2 IV every 12 hours on days 1, 3 and 5 in those >60 years. Allogeneic stem cell transplantation was permitted after induction per standard of care but was recommended after at least 1 cycle of HiDAC consolidation in those who achieved CR.
# Response Assessments. Response assessment was performed by a bone marrow aspirate and biopsy at the time of full hematologic recovery or by day 50 and day 60 of 1 versus 2 induction cycles, respectively. Response to therapy was assessed by standardized ELN Guidelines. In those who achieved CR and received consolidation therapy, a bone marrow aspirate and biopsy was performed after cycle 2 of HiDAC, after completion of consolidation therapy, and at any suspicion of relapse.
# [2] = tested on: patients with newly diagnosed, previously untreated AML; assay: Kaplan-Meier time-to-event analyses and clinical outcomes of the Phase 1 study; assay type: in vivo, human
# Description: Statistical Analysis. […] Intra-patient dose escalation was not permitted. […] Database lock was on Apr. 30, 2020.
# [3] = tested on: patients with newly diagnosed, previously untreated AML
# Procedure: Treatment Plan: Induction. Alvocidib was dose-escalated starting at dose level 1: 20 mg/m^2 30-minute IV bolus followed by 30 mg/m^2 IV infusion over 4 hours on Days 1-3 (FIG. 1). Daunorubicin 60 mg/m^2 IV bolus over 15 minutes was initiated on days 5-7, and cytarabine 100 mg/m^2/day IV continuous 24-hour infusion was administered on Days 5-11. A bone marrow aspirate and biopsy was performed on day 14 (+/−3 days) and patients with residual leukemia (>5% bone marrow blasts and >10% cellularity) were recommended to receive a second induction cycle with alvocidib on days 1-3 (same dose level as induction) followed by daunorubicin 45 mg/m^2/day IV over 15 minutes on days 5 and 6 and cytarabine 100 mg/m^2/day IV continuous infusion over days 5-9 (“5+2”).
# Statistical Analysis. Alvocidib dose was escalated using a 3+3 design (FIG. 1). Successive cohorts of patients (3-6 per cohort) were treated with escalated doses until the maximal tolerated dose (MTD) was established. Intra-patient dose escalation was not permitted. Descriptive analysis was performed for the safety and efficacy endpoints. MTD for alvocidib was estimated by the highest alvocidib dose for which the incidence of DLT during Cycle 1 was less than 33% in combination with 7+3. Kaplan-Meier time-to-event analyses were performed on overall survival (OS), relapse-free survival and duration of remission. […]
# [4] = tested on: patients with newly diagnosed, previously untreated AML; assay: Minimal residual disease (MRD) analysis of bone marrow by flow cytometry in the Phase 1 study; assay type: in vivo, human
# Procedure: Minimal Residual Disease (MRD) Analysis. MRD was assessed in bone marrow samples at the time of response by a uniform central assay (Hematologics, Inc.) in an exploratory cohort, as has been previously described. Samples were first incubated with antibodies for 20 minutes at room temperature. Red blood cells were then lysed at 37° C. using buffered NH4Cl for 5 minutes, followed by centrifugation at 300 g. Cells were subsequently washed with PBS supplemented with 2% FCS and resuspended in 1% paraformaldehyde. Samples were analyzed on a FACSCalibur™ flow cytometer (Becton Dickinson Biosciences). 200,000 events were analyzed for each sample. Data analysis was performed with WinList™ software (Verity Software House). Two independent reviewers viewed each sample to arrive at a consensus on the data.
# [5] = tested on: MDS blasts; assay: MCL-1 dependency assay of MDS blasts after azacitidine pre-treatment; assay type: cell-based, human; conditions: MCL-1 dependency cut-off of 40%
# Procedure: CD13, CD33, CD34, CD45, CD3 and CD20 were used as markers to identify MDS blasts, and to perform MCL-1 dependency analyses. MDS blasts were positive for CD13, CD33 and CD34, dim for CD45 and negative for CD3 and CD20.
# On day 1 of the MCL-1 dependency assay, 5×10^4-1×10^5 HS-5 feeder cells were plated into a 6-well plate, and allowed to attached overnight. HS-5 feeder cells improve viability of frozen MDS bone marrow mononuclear cells (BMMCs) after thawing. On day 2 of the assay, MDS BMMCs were thawed, and divided into three treatment groups corresponding to treatment with DMSO, treatment with 1 μM azacitidine or treatment with 2.5 μM azacitidine. On day 4, after a 48-hour treatment period, MCL-1 dependency of MDS blasts, lymphocytes and monocytes were separately assessed.
# [6] = Response Evaluable Population (N = 31), alvocidib followed by 7+3
smiles,measurement,setting,value
"CN1CC[C@H](c2c(O)cc(O)c3c(=O)cc(-c4ccccc4Cl)oc23)[C@H](O)C1 [alvocidib, 2-(2-chlorophenyl)-5,7-dihydroxy-8-[(3S,4R)-3-hydroxy-1-methylpiperidin-4-yl]chromen-4-one]",patients achieving CR after re-induction therapy,[1]; 3 patients re-induced with alvocidib and 5+2,None
same,CR rate,"[1]; AML with mutated chromatin, RNA-splicing genes, or both (9/10)",90%
same,patients achieving CR,[1]; MRD exploratory cohort of 12 patients at recommended phase 2 dose,75%
same,"CR, n (%)",[1]; [6],22 (71.0%) n (%)
same,CRi (%),[1]; [6],0%
same,"Overall CR/CRi, n (%)",[1]; [6],22 (71.0%) n (%)
same,Overall Response Rate (CR + CRi + PR),[1]; [6],24 (77.4%) n (%)
same,"PR, n (%)",[1]; [6],2 (6.5%) n (%)
same,"Overall CR, n (%)",[1]; ELN-risk Adverse (n = 15),9 (60.0%) n (%)
same,"Overall CR, n (%)",[1]; ELN-risk Favorable (n = 9),8 (88.9%) n (%)
same,"Overall CR, n (%)",[1]; ELN-risk Intermediate (n = 7),5 (71.4%) n (%)
same,"Overall CR, n (%)",[1]; SWOG cytogenetics risk Favorable (n = 0),0 (0.0%) n (%)
same,"Overall CR, n (%)",[1]; SWOG cytogenetics risk Intermediate (n = 19),15 (78.9%) n (%)
same,"Overall CR, n (%)",[1]; SWOG cytogenetics risk Unfavorable (n = 12),7 (58.3%) n (%)
same,"Overall CR, n (%)",[1]; SWOG cytogenetics risk Unknown (n = 0),0 (0.0%) n (%)
same,"Overall CR, n (%)",[1]; subgroup AML with MRC (n = 11),6 (54.5%) n (%)
same,"Overall CR, n (%)",[1]; subgroup Age <60 years (n = 21),16 (76.2%) n (%)
same,"Overall CR, n (%)",[1]; subgroup Age ≥60 years (n = 10),6 (60.0%) n (%)
same,"Overall CR, n (%)",[1]; subgroup At MTD (n = 23),15 (65.2%) n (%)
same,"Overall CR, n (%)",[1]; subgroup Secondary AML (n = 5),3 (60.0%) n (%)
same,patients with no evidence of residual leukemia on day 14 assessment,[1]; all enrolled patients,91%
same,CR rate,[1]; all enrolled patients (n=32),69%
same,overall response rate (ORR: CR+partial remission (PR)),[1]; all enrolled patients (n=32),75%
same,Overall CR rate,"[1]; all enrolled, ELN adverse-risk (9 of 16)",56%
same,Overall CR rate,"[1]; all enrolled, ELN favorable-risk (8 of 9)",89%
same,Overall CR rate,"[1]; all enrolled, ELN intermediate-risk (5 of 7)",71%
same,CR rate,"[1]; dose level 1 (3 of 3), all ELN favorable-risk",100%
same,CR rate,"[1]; genomic signature specific for secondary AML (ASXL1, BCOR, EZH2, SF3B1, SRSF2, STAG2, U2AF1, or ZRSR2) (11/12)",92%
same,Overall CR rate,[1]; patients with ASXL1 mutations (5/6),83%
same,CR rate,[1]; patients with MCL-1 scores greater than 30% (10/12),83%
same,CR rate,[1]; patients with MCL-1 scores less than 30% (10/15),67%
same,CR rate,[1]; patients with NPM1 mutations (8/10),80%
same,Overall CR rate,[1]; patients with RUNX1 mutations (4/5),80%
same,patients achieving CR,[1]; patients with a TP53 mutation (1/3),33%
same,patients achieving CR,[1]; recommended phase 2 dose level (15/23),65%
same,CR rate,[1]; response-evaluable patients,71%
same,ORR,[1]; response-evaluable patients,77%
same,median duration of CR,"[2]; 7 relapsed CR patients, range: 1.4-13.6 months",8.6 months
same,Median EFS,"[2]; 32 patients, 95% CI: 2.0, NA",10.0 months
same,Landmark 1-year OS,"[2]; 32 patients, 95% CI: 41.9, 77.4%",62.4%
same,median OS,"[2]; 32 patients, median follow-up 9.2 months",not reached
same,Landmark 2-year EFS,"[2]; 95% CI: 15.4, 53.8%",34.1%
same,Landmark 1-year EFS,"[2]; 95% CI: 21.9, 59.1%",40.9%
same,Landmark 1-year RFS,"[2]; 95% CI: 31.7, 79.1%",59.5%
same,relapsed to date,[2]; of the 22 CR patients,32%
same,remain in CR,[2]; patients who achieved CR without MRD,82%
same,relapsed,[2]; patients who achieved CR without evidence of MRD,18%
same,median RFS,[2]; time from CR/CRi up to relapse or death,not reached
same,MTD (maximum tolerated dose) of alvocidib,"[3]; IV bolus/IV infusion on Days 1-3, in combination with 7+3",(30/60 mg/m^2)
same,safety and feasibility,[3]; in vivo,"safe, feasible"
same,MRD-negative among patients who achieved CR,"[4]; 22 CR patients, standardized flow cytometry and/or institutional standard assessment",50%
same,MRD-negative among patients who achieved CR,[4]; ELN adverse-risk disease (4/9),44%
same,"MRD-negative CR, overall","[4]; MRD exploratory cohort, 8 of 12 patients",67%
same,MRD-negative among CR patients,"[4]; MRD exploratory cohort, centralized flow cytometry (8/9)",89%
same,MRD-negative CR,"[4]; MRD exploratory cohort, ELN adverse-risk patients (3 out of 4)",75%
same,CR with evidence of MRD,"[4]; MRD exploratory cohort, one patient with adverse-risk disease",11%
Nc1ncn([C@@H]2O[C@H](CO)[C@@H](O)[C@H]2O)c(=O)n1 [azacitidine],patient samples with an increase in MCL-1 dependency,"[5]; 1 μM or 2.5 μM azacitidine, 48-hour treatment",10/12
same,effect on MCL-1 dependency status of blasts,[5]; patient sample MDS1060,rendered MCL-1-independent blasts MCL-1 dependent
